Data as given in US20100056519A1, “COMPOSITION AND METHOD FOR REDUCING PLATELET ACTIVATION AND FOR THE TREATMENT OF THROMBOTIC EVENTS” (priority 2008, published 2010).

What was measured:
Type in all cases: cell-based, human
P-selectin (CD62p) = assay: Unstimulated whole blood flow cytometry, P-selectin; details: for P-selectin (CD62p), % positive cells: unstimulated, Mean ± SD
Description: (§1) The methodology employed was conventional aggregation induced by 5 μM ADP, 1 μg/ml collagen, 10 μM TRAP, whole blood aggregation with 1 μg/ml collagen, Ultegra, and PFA-100 Analyzers, expression of 14 intact, and TRAP-stimulated major receptors by whole blood flow cytometry were utilized to assess platelet activity after preincubation with escalating concentrations of E5555 (20 ng/ml, 50 ng/ml, and 100 ng/ml). The experiments were performed in healthy volunteers, CAD patients treated with ASA, and CAD patients treated with ASA and clopidogrel combination (n=10, for each group).
(§2) An Informed Consent was obtained from all volunteers. Drug users were excluded from data analysis. The study was approved by Quorum Institutional Review Board. All subjects underwent blood sampling after at least 30 minutes of rest and two or more hours of fasting. Blood (28 ml) was drawn between 8 and 10 a.m. in order to avoid any diurnal influence and sampled from an antecubital vein using a 21-gauge butterfly needle containing 3.2% sodium citrate (1:9 volume) after having discarded the first 1.5 ml of free running blood. Four Vacutainer tubes (7.0 ml) were collected for a total of 28 ml of whole blood-citrate mixture from each study participant. Chronologically, blood samples were delivered to the core laboratory facility within 45 minutes after drawing. Then all tubes of blood-citrate mixture were pooled. One portion of pooled blood (5 ml) was kept as an internal control and pretreated with the vehicle. The remaining blood (23 ml) was used for the in vitro exposure to E5555 at concentrations of 20 ng/ml, 50 ng/ml, and 100 ng/ml. […] The platelet aggregation studies, Rapid Analyzers measures, and flow cytometry preparations were initiated within no more than 110 minutes following the blood draw, incubation with the drug, and preparation of the samples.
(§3) Formation of platelet-leukocyte aggregates was assessed by dual labeling with pan-platelet marker (CD151), and then with CD14, the macrophage receptor for endotoxin lipopolysaccharides (PharMingen, and Coulter, San Diego, Calif., USA). The tubes were then covered with aluminum foil and incubated at 37° C. for 40 minutes with gentle rotation. After incubation, samples were immediately analyzed on a Becton Dickinson FACScan flow cytometer. The instrument was set up to measure forward light scatter, and FITC fluorescence. All parameters were collected using four-decade logarithmic amplification. The data was retrieved in list mode files and then analyzed. P selectin was expressed as percent positive cells. Other antigens were expressed as log mean fluorescence intensity.

LAMP-1 (CD107a) = assay: TRAP-stimulated whole blood flow cytometry, LAMP-1; details: Mean ± SD
Description: as §1, §2, §3
(§4) For flow cytometry (TRAP-stimulated) all of the above flow cytometry experiments were identically repeated utilizing prestimulation with 10 μmol/L TRAP for 5 minutes at 37° C. To determine statistics, a Paired Sign Test was used to define significance of differences between vehicle and E5555-treated groups. The Mann-Whitney U test was used to analyze nonparametric data. Normally distributed data were expressed as mean±standard error (m±SE), and skewed data as median (range). All P-values were two sided. All analysis was performed using the SPSS v9.0 program (SPSS Inc., Chicago, Ill.).

PECAM-1 (CD31) = assay: TRAP-stimulated whole blood flow cytometry, PECAM-1; details: Mean ± SD
Description: as §1, §2, §3, §4

GP37 (CD165) = assay: TRAP-stimulated whole blood flow cytometry, GP37; details: Mean ± SD
Description: as §1, §2, §3, §4

LAMP-3 (CD63) = assay: TRAP-stimulated whole blood flow cytometry, LAMP-3; details: Mean ± SD
Description: as §1, §2, §3, §4

PAC-1 (GPIIb/IIIa) = assay: TRAP-stimulated whole blood flow cytometry, PAC-1; details: Mean ± SD
Description: as §1, §2, §3, §4

GPIb (CD42b) = assay: TRAP-stimulated whole blood flow cytometry, GPIb; details: Mean ± SD
Description: as §1, §2, §3, §4

[1] = E5555 20 ng/ml, Patients (ASA + C)
[2] = E5555 50 ng/ml, Patients (ASA + C)
[3] = E5555 100 ng/ml, Patients (ASA + C)
[4] = E5555 100 ng/ml, Patients (ASA)

## Br.CCOc1cc2c(c(F)c1OCC)C(=N)N(CC(=O)c1cc(N3CCOCC3)c(OC)c(C(C)(C)C)c1)C2 [E5555, 1-(3-tert-butyl-4-methoxy-5-morpholinophenyl)-2-(5,6-diethoxy-7-fluoro-1-imino-1,3-dihydro-2H-isoindol-2-yl)ethanone hydrobromide]
P-selectin (CD62p); overall summary, stimulation not stated
  P selectin, effect in words: not affected
P-selectin (CD62p); [1]
  P-selectin (CD62p), % positive cells: 7.6 ± 2.0 % positive cells
P-selectin (CD62p); E5555 20 ng/ml, Patients (ASA)
  P-selectin (CD62p), % positive cells: 9.7 ± 1.5 % positive cells
P-selectin (CD62p); E5555 20 ng/ml, Volunteers
  P-selectin (CD62p), % positive cells: 10.8 ± 2.0 % positive cells
P-selectin (CD62p); [2]
  P-selectin (CD62p), % positive cells: 7.7 ± 2.2 % positive cells
P-selectin (CD62p); E5555 50 ng/ml, Patients (ASA)
  P-selectin (CD62p), % positive cells: 10.1 ± 1.8 % positive cells
P-selectin (CD62p); E5555 50 ng/ml, Volunteers
  P-selectin (CD62p), % positive cells: 12.3 ± 2.2 % positive cells
P-selectin (CD62p); [3]
  P-selectin (CD62p), % positive cells: 8.0 ± 11.5 % positive cells
P-selectin (CD62p); [4]
  P-selectin (CD62p), % positive cells: 10.7 ± 1.6 % positive cells
P-selectin (CD62p); E5555 100 ng/ml, Volunteers
  P-selectin (CD62p), % positive cells: 11.4 ± 1.8 % positive cells
LAMP-1 (CD107a); [1]
  LAMP-1 (CD107a), Mean Fluorescence Intensity: 4.0 ± 0.8 MFI
LAMP-1 (CD107a); E5555 20 ng/ml, Patients (ASA)
  LAMP-1 (CD107a), Mean Fluorescence Intensity: 4.1 ± 0.7 MFI
LAMP-1 (CD107a); E5555 20 ng/ml, Volunteers
  LAMP-1 (CD107a), Mean Fluorescence Intensity: 5.9 ± 0.8 MFI
LAMP-1 (CD107a); [2]
  LAMP-1 (CD107a), Mean Fluorescence Intensity: 3.2 ± 1.0 MFI
LAMP-1 (CD107a); E5555 50 ng/ml, Patients (ASA)
  LAMP-1 (CD107a), Mean Fluorescence Intensity: 4.0 ± 0.5 MFI
LAMP-1 (CD107a); E5555 50 ng/ml, Volunteers
  LAMP-1 (CD107a), Mean Fluorescence Intensity: 4.9 ± 0.4 MFI
LAMP-1 (CD107a); [3]
  LAMP-1 (CD107a), Mean Fluorescence Intensity: 3.0 ± 1.1 MFI
LAMP-1 (CD107a); [4]
  LAMP-1 (CD107a), Mean Fluorescence Intensity: 3.1 ± 0.7 MFI
LAMP-1 (CD107a); E5555 100 ng/ml, Volunteers
  LAMP-1 (CD107a), Mean Fluorescence Intensity: 4.7 ± 0.8 MFI
PECAM-1 (CD31); [1]
  PECAM-1 (CD31), Mean Fluorescence Intensity: 58 ± 9 MFI
PECAM-1 (CD31); E5555 20 ng/ml, Patients (ASA)
  PECAM-1 (CD31), Mean Fluorescence Intensity: 50 ± 6 MFI
PECAM-1 (CD31); E5555 20 ng/ml, Volunteers
  PECAM-1 (CD31), Mean Fluorescence Intensity: 60 ± 9 MFI
PECAM-1 (CD31); [2]
  PECAM-1 (CD31), Mean Fluorescence Intensity: 60 ± 7 MFI
PECAM-1 (CD31); E5555 50 ng/ml, Patients (ASA)
  PECAM-1 (CD31), Mean Fluorescence Intensity: 54 ± 9 MFI
PECAM-1 (CD31); E5555 50 ng/ml, Volunteers
  PECAM-1 (CD31), Mean Fluorescence Intensity: 55 ± 10 MFI
PECAM-1 (CD31); [3]
  PECAM-1 (CD31), Mean Fluorescence Intensity: 57 ± 11 MFI
PECAM-1 (CD31); [4]
  PECAM-1 (CD31), Mean Fluorescence Intensity: 52 ± 12 MFI
PECAM-1 (CD31); E5555 100 ng/ml, Volunteers
  PECAM-1 (CD31), Mean Fluorescence Intensity: 60 ± 7 MFI
GP37 (CD165); [1]
  GP37 (CD165), Mean Fluorescence Intensity: 27 ± 4 MFI
GP37 (CD165); E5555 20 ng/ml, Patients (ASA)
  GP37 (CD165), Mean Fluorescence Intensity: 27 ± 5 MFI
GP37 (CD165); E5555 20 ng/ml, Volunteers
  GP37 (CD165), Mean Fluorescence Intensity: 32 ± 6 MFI
GP37 (CD165); [2]
  GP37 (CD165), Mean Fluorescence Intensity: 18 ± 4 MFI
GP37 (CD165); E5555 50 ng/ml, Patients (ASA)
  GP37 (CD165), Mean Fluorescence Intensity: 20 ± 7 MFI
GP37 (CD165); E5555 50 ng/ml, Volunteers
  GP37 (CD165), Mean Fluorescence Intensity: 28 ± 5 MFI
GP37 (CD165); [3]
  GP37 (CD165), Mean Fluorescence Intensity: 21 ± 9 MFI
GP37 (CD165); [4]
  GP37 (CD165), Mean Fluorescence Intensity: 22 ± 6 MFI
GP37 (CD165); E5555 100 ng/ml, Volunteers
  GP37 (CD165), Mean Fluorescence Intensity: 29 ± 4 MFI
LAMP-3 (CD63); [1]
  LAMP-3 (CD63), Mean Fluorescence Intensity: 20 ± 5 MFI
LAMP-3 (CD63); E5555 20 ng/ml, Patients (ASA)
  LAMP-3 (CD63), Mean Fluorescence Intensity: 24 ± 8 MFI
LAMP-3 (CD63); E5555 20 ng/ml, Volunteers
  LAMP-3 (CD63), Mean Fluorescence Intensity: 26 ± 7 MFI
LAMP-3 (CD63); [2]
  LAMP-3 (CD63), Mean Fluorescence Intensity: 5 ± 3 MFI
LAMP-3 (CD63); E5555 50 ng/ml, Patients (ASA)
  LAMP-3 (CD63), Mean Fluorescence Intensity: 9 ± 3 MFI
LAMP-3 (CD63); E5555 50 ng/ml, Volunteers
  LAMP-3 (CD63), Mean Fluorescence Intensity: 8 ± 2 MFI
LAMP-3 (CD63); [3]
  LAMP-3 (CD63), Mean Fluorescence Intensity: 4 ± 1 MFI
LAMP-3 (CD63); [4]
  LAMP-3 (CD63), Mean Fluorescence Intensity: 5 ± 1 MFI
LAMP-3 (CD63); E5555 100 ng/ml, Volunteers
  LAMP-3 (CD63), Mean Fluorescence Intensity: 7 ± 2 MFI
PAC-1 (GPIIb/IIIa); [1]
  PAC-1 (GPIIb/IIIa), Mean Fluorescence Intensity: 41 ± 5 MFI
PAC-1 (GPIIb/IIIa); E5555 20 ng/ml, Patients (ASA)
  PAC-1 (GPIIb/IIIa), Mean Fluorescence Intensity: 52 ± 6 MFI
PAC-1 (GPIIb/IIIa); E5555 20 ng/ml, Volunteers
  PAC-1 (GPIIb/IIIa), Mean Fluorescence Intensity: 68 ± 8 MFI
PAC-1 (GPIIb/IIIa); [2]
  PAC-1 (GPIIb/IIIa), Mean Fluorescence Intensity: 9 ± 1 MFI
PAC-1 (GPIIb/IIIa); E5555 50 ng/ml, Patients (ASA)
  PAC-1 (GPIIb/IIIa), Mean Fluorescence Intensity: 9 ± 3 MFI
PAC-1 (GPIIb/IIIa); E5555 50 ng/ml, Volunteers
  PAC-1 (GPIIb/IIIa), Mean Fluorescence Intensity: 17 ± 9 MFI
PAC-1 (GPIIb/IIIa); [3]
  PAC-1 (GPIIb/IIIa), Mean Fluorescence Intensity: 5 ± 2 MFI
PAC-1 (GPIIb/IIIa); [4]
  PAC-1 (GPIIb/IIIa), Mean Fluorescence Intensity: 4 ± 1 MFI
PAC-1 (GPIIb/IIIa); E5555 100 ng/ml, Volunteers
  PAC-1 (GPIIb/IIIa), Mean Fluorescence Intensity: 7 ± 3 MFI
GPIb (CD42b); [1]
  GPIb (CD42b), Mean Fluorescence Intensity: 105 ± 14 MFI
GPIb (CD42b); E5555 20 ng/ml, Patients (ASA)
  GPIb (CD42b), Mean Fluorescence Intensity: 102 ± 9 MFI
GPIb (CD42b); E5555 20 ng/ml, Volunteers
  GPIb (CD42b), Mean Fluorescence Intensity: 134 ± 17 MFI
GPIb (CD42b); [2]
  GPIb (CD42b), Mean Fluorescence Intensity: 102 ± 19 MFI
GPIb (CD42b); E5555 50 ng/ml, Patients (ASA)
  GPIb (CD42b), Mean Fluorescence Intensity: 104 ± 17 MFI
GPIb (CD42b); E5555 50 ng/ml, Volunteers
  GPIb (CD42b), Mean Fluorescence Intensity: 125 ± 24 MFI
GPIb (CD42b); [3]
  GPIb (CD42b), Mean Fluorescence Intensity: 137 ± 18 MFI
GPIb (CD42b); [4]
  GPIb (CD42b), Mean Fluorescence Intensity: 100 ± 14 MFI
GPIb (CD42b); E5555 100 ng/ml, Volunteers
  GPIb (CD42b), Mean Fluorescence Intensity: 150 ± 26 MFI
